# Source: patent US4118506A, “Pharmaceutical compositions containing 1,3-dithiol-2-ylidene malonate derivatives” (Nihon Nohyaku Co., Ltd., priority 1976, dated 1978)
# Key:
# [1] = system: chronic liver damage induced by thioacetamide; assay: therapeutic effect on chronic liver damage, thioacetamide model (BSP test); assay type: in vivo, rat (Sprague Dawley); conditions: Group B, diet + 0.2% compound
# Description: In the tests of this Example, TAA was repeatedly administered to animals to prepare test animals suffering from somewhat chronic liver damages, and then the present compounds were administered thereto to know whether or not the compounds were effective against chronic hepatitis.
# The degree of the liver damage and the therapeutic effects of the compounds were evaluated according to BSP test. The BSP test is a method in which BSP (sulfobromophthalein sodium), a dye known to be quickly metabolized in and excreted from the liver, is intravenously injected into animals and, after a definite period of time, the blood is taken out to measure the amount of BSP remaining in the plasma. In case the animals are suffering from the liver damage, the dye will remain, according to the degree of the damage, at the stage where a major portion of BSP is metabolized and excreted in the case of normal animals.
# Five groups of rats (Sprague Dawley strain) were treated as follows:
# Group A: The rats were orally administered with 100 mg/kg of thioacetamide,at 3 days intervals for 36 days (12 times of the administration), then were submitted for 10 days to a normal diet.
# Group B: The rats were orally administered with 100 mg/kg of thioacetamide at 3 days intervals for 36 days (12 times of the administration), then were submitted for 10 days to the normal diet + 0.2% of compound 4.
# Group C: The rats were submitted to the normal diet as the control.
# Five rats were sacrificed from each group at appropriate intervals for BSP (sulfobromophthalein sodium) test, the results of which were shown as amounts (mg) of BSP remaining in ldl of plasma.
# [2] = system: alcohol metabolic function of liver; assay: effect on concentration of ethyl alcohol in the blood; assay type: in vivo, mouse; conditions: 250 mg/kg oral 6 h before ethanol 1,000 mg/kg
# Description: The test compounds are dissolved or suspended in olive oil and administered orally at the dose of 250 mg/kg to the mice. After 6 hours, 1,000 mg/kg of ethyl alcohol was given orally. Blood was taken in a capillary from caudal vein at the time indicated in the results. The plasma was obtained by centrifugation. The concentration of ethyl alcohol in the plasma was measured by FID type gas liquid chromatography. Five mice were used for each group.
compound,measurement,setting,value
"CC(C)OC(=O)C(C(=O)OC(C)C)=C1SC=CS1 [Compound 4, diisopropyl 1,3-dithiol-2-ylidene malonate]",BSP remaining in plasma,[1]; 2 days after compound administration,7.2 ± 2.5 mg/dL
same,BSP remaining in plasma,[1]; 5 days after compound administration,2.8 ± 0.7 mg/dL
same,BSP remaining in plasma,[1]; 10 days after compound administration,0.5 ± 0.1 mg/dL
same,Concentration of Ethyl alcohol in Plasma,[2]; 0 min,25 ± 12 ppm
same,Concentration of Ethyl alcohol in Plasma,[2]; 5 min,582 ± 143 ppm
same,Concentration of Ethyl alcohol in Plasma,[2]; 15 min,468 ± 30 ppm
same,Concentration of Ethyl alcohol in Plasma,[2]; 30 min,220 ± 87 ppm
same,Concentration of Ethyl alcohol in Plasma,[2]; 60 min,29 ± 17 ppm
same,Concentration of Ethyl alcohol in Plasma,[2]; 120 min,not detected
